Laboratory results published in patent US20170280722A1, “COMPOSITIONS AND METHODS FOR CONTROL OF SAND FLIES AND OTHER BLOOD SUCKING INSECTS” (GENESIS LABORATORIES, INC., priority 2010, published 2017).

Legend:
[1] = test system: P. argentipes first instar larvae; test: Larval bioassay with feces of fipronil treated B. bengalensis; assay type: in vivo; settings: for Mean ± SEM survival (days) of P. argentipes larvae during exposure to treated feces D-1 / Mean ± SEM survival (days) of P. argentipes larvae during exposure to treated feces D-5 / Mean ± SEM survival (days) of P. argentipes larvae during exposure to treated feces D-10 / Mean ± SEM survival (days) of P. argentipes larvae during exposure to treated feces D-20: B. bengalensis; for Mean ± SEM survival (days) of P. argentipes larvae during exposure to treated feces D-1: feces 1 day post-treatment; for Mean ± SEM survival (days) of P. argentipes larvae during exposure to treated feces D-5: feces 5 days post-treatment; for Mean ± SEM survival (days) of P. argentipes larvae during exposure to treated feces D-10: feces 10 days post-treatment; for Mean ± SEM survival (days) of P. argentipes larvae during exposure to treated feces D-20: feces 20 days post-treatment
Procedure: (§1) The B. bengalensis fipronil study was conducted in two portions. In the first of the two segments, three randomly selected B. bengalensis were offered a fipronil (250 ppm) treated diet at 25 g daily. One rat served as control and was fed an untreated diet. In the second portion of the study, the remaining animals were randomly divided into two groups of two. Two individuals in the first group were offered 25 g of 100 ppm fipronil-treated feed each and two rats in the second group were each offered 25 g of 50 ppm fipronil-treated diet. One rat served as control and was fed an untreated diet.
(§2) Test animals were provided treated feed for two consecutive days. Diets were prepared by utilizing locally available poultry feed treated with technical grade fipronil to predetermined concentrations. Consumption was calculated daily, feed refilled to a predetermined level of 25 g, and feces cleared. At the end of the second day, treated feed was cleared, final consumption weighed, and feed replaced with untreated locally available poultry feed. Feces were collected, noted as day-1 post-treatment and properly stored for use in assays. Observation of test animals continued for twenty days post-treatment, with additional collection of feces for testing conducted 5, 10, and 20 days post-treatment. On days when fecal collection occurred, all newspaper/bedding was replaced at 0800 hours and feces collected at the end of the day for preservation. Collected feces were dried overnight at approximately 40° C., ground into a fine powder with a pestle and mortar and frozen at −20° C. until larval bioassays were initiated.
Larval bioassay jars were prepared using 48 mm, 100 g round Dibbi jars (Pearlpet, Pearl Polymers LTD., New Delhi, India). Jars were prepared by burning three small holes into the bottom of the container with a soldering iron. A thin layer (approximately 5 mm) of plaster of Paris was cast on the bottom and wetted to ensure humidity and softening of the test diet. To simplify mortality counts, the plaster was quartered, and each quadrant numbered one through four, using an ultra fine black marker. The lids of the jars were punctured with 15-20 small holes using a heated 24-gauge hypodermic needle.
Each bioassay jar was loaded with ten one to two day old first instar P. argentipes larvae. Approximately 5 mg treated feces were sprinkled evenly over the plaster. Larval bioassay samples were maintained in a controlled environment at approximately 24° C. with relative humidity maintained at approximately 80% through daily moistening of paper towels underneath the jars. Any observed mold or mites were removed during each day's observation. Each bioassay group included one control jar with larvae provided standard larval food consisting of rabbit feed, rabbit pellets, and dried chicken blood which were mixed, dried, composted, and crushed. Mortality counts of larvae were conducted every 24 hours post-exposure until 100% mortality or pupation was observed. Larvae were considered dead if no physical response was observed within 15 seconds of light stimulation with a blunt probe.

[2] = test system: adult P. argentipes; test: Adult sand fly bioassay, bloodfeeding on fipronil treated B. bengalensis; assay type: in vivo; settings: for Time after 1 hour exposure to 100% mortality of adult P. argentipes: bloodfeeding 20 days after treatment; for Adult sand fly mortality: across treatment groups
Procedure: as §1, §2
Adult sand fly bioassays were conducted 1, 5, 10 and 20 days post feed-through treatment of B. bengalensis. B. bengalensis were anesthetized with 15 units of ketamine (KetaJet 50, SterFil Laboratories Pvt. Ltd., Ankleshwar, India) via intramuscular injection. The belly of each rat was shaved using an electric razor and a mesh covered plastic capsule (20 mm diameter, 25 mm height) containing 20 adult female and 5 adult male P. argentipes was affixed to the shaved area with medical tape. The capsules had about 10 small holes burned into the top with a heated 24 gauge needle. Capsules remained in place for one hour, covered with a light cloth to maintain warmth and reduce light. At the end of one hour, the capsules were removed and observations for mortality conducted immediately, at 12 hours post-feeding, and every 24 hours thereafter for up to 5 days post-exposure. Partially fed sand flies were included in analyses as “bloodfed” specimens. Unfed sand flies were removed, and bloodfed sand flies were observed collectively by treatment group.

**Q.** With `N#Cc1nn(-c2c(Cl)cc(C(F)(F)F)cc2Cl)c(N)c1[S+]([O-])C(F)(F)F` (centres unmarked) [fipronil] as the compound, how does the “Mean ± SEM survival (days) of P. argentipes larvae during exposure to treated feces D-1” value ([1]; 50 ppm) read?
**A.** 2.66 ± 0.18 days

**Q.** What about the “Mean ± SEM survival (days) of P. argentipes larvae during exposure to treated feces D-5” value ([1]; 50 ppm) of the same compound?
**A.** 4.03 ± 0.27 days

**Q.** What about the “Mean ± SEM survival (days) of P. argentipes larvae during exposure to treated feces D-10” value ([1]; 50 ppm) of the same compound?
**A.** 4.06 ± 0.29 days

**Q.** And the “Mean ± SEM survival (days) of P. argentipes larvae during exposure to treated feces D-20” value ([1]; 50 ppm)?
**A.** 6.36 ± 0.36 days

**Q.** And the “Mean ± SEM survival (days) of P. argentipes larvae during exposure to treated feces D-1” value ([1]; 100 ppm)?
**A.** 2.23 ± 0.11 days

**Q.** What about the “Mean ± SEM survival (days) of P. argentipes larvae during exposure to treated feces D-5” value ([1]; 100 ppm) of the same compound?
**A.** 3.73 ± 0.23 days

**Q.** What about the “Mean ± SEM survival (days) of P. argentipes larvae during exposure to treated feces D-10” value ([1]; 100 ppm) of the same compound?
**A.** 3.70 ± 0.16 days

**Q.** And the “Mean ± SEM survival (days) of P. argentipes larvae during exposure to treated feces D-20” value ([1]; 100 ppm)?
**A.** 3.82 ± 0.21 days

**Q.** What about the “Mean ± SEM survival (days) of P. argentipes larvae during exposure to treated feces D-1” value ([1]; 250 ppm) of the same compound?
**A.** 3.37 ± 0.20 days

**Q.** And the “Mean ± SEM survival (days) of P. argentipes larvae during exposure to treated feces D-5” value ([1]; 250 ppm)?
**A.** 5.13 ± 0.27 days

**Q.** And the “Mean ± SEM survival (days) of P. argentipes larvae during exposure to treated feces D-10” value ([1]; 250 ppm)?
**A.** 2.28 ± 0.10 days

**Q.** What about the “Mean ± SEM survival (days) of P. argentipes larvae during exposure to treated feces D-20” value ([1]; 250 ppm) of the same compound?
**A.** 2.20 ± 0.10 days

**Q.** What about the “Days of exposure to achieve 100% mortality” value ([1]; feces 5 days after treatment, 50 ppm) of the same compound?
**A.** 7 days

**Q.** What about the Larval mortality ([1]; feces 5 days after treatment, 50 ppm, after 2 days of exposure) of the same compound?
**A.** 23%

**Q.** What about the “Days of exposure to achieve 100% mortality” value ([1]; feces 5 days after treatment, 100 ppm) of the same compound?
**A.** 7 days

**Q.** And the Larval mortality ([1]; feces 5 days after treatment, 100 ppm, after 2 days of exposure)?
**A.** 22%

**Q.** What about the “Days of exposure to achieve 100% mortality” value ([1]; feces 5 days after treatment, 250 ppm) of the same compound?
**A.** 8 days

**Q.** What about the Larval mortality ([1]; feces 5 days after treatment, 250 ppm, after 3 days of exposure) of the same compound?
**A.** 23%

**Q.** What about the “Days of exposure to achieve 100% mortality” value ([1]; feces 10 days after treatment, 50 ppm) of the same compound?
**A.** 9 days

**Q.** And the Larval mortality ([1]; feces 10 days after treatment, 50 ppm, after 2 days of exposure)?
**A.** 16%

**Q.** And the Larval mortality ([1]; feces 10 days after treatment, 50 ppm, after 6 days of exposure)?
**A.** 95%

**Q.** And the “Days of exposure to achieve 100% mortality” value ([1]; feces 10 days after treatment, 100 ppm)?
**A.** 5 days

**Q.** And the Larval mortality ([1]; feces 10 days after treatment, 100 ppm, after 2 days of exposure)?
**A.** 6%

**Q.** What about the “Days of exposure to achieve 100% mortality” value ([1]; feces 10 days after treatment, 250 ppm) of the same compound?
**A.** 4 days

**Q.** What about the Larval mortality ([1]; feces 10 days after treatment, 250 ppm, after 2 days of exposure) of the same compound?
**A.** 78%

**Q.** And the “Days of exposure to achieve 100% mortality” value ([1]; feces 20 days after treatment, 50 ppm)?
**A.** 10 days

**Q.** And the “Days of exposure to achieve 100% mortality” value ([1]; feces 20 days after treatment, 100 ppm)?
**A.** 6 days

**Q.** And the Larval mortality ([1]; feces 20 days after treatment, 100 ppm (so in the source), after 3 days of exposure)?
**A.** 7%

**Q.** And the Larval mortality ([1]; feces 20 days after treatment, 100 ppm, after 2 days of exposure)?
**A.** 14%

**Q.** And the “Days of exposure to achieve 100% mortality” value ([1]; feces 20 days after treatment, 250 ppm)?
**A.** 4 days

**Q.** And the Larval mortality ([1]; feces 20 days after treatment, 250 ppm, after 2 days of exposure)?
**A.** 85%

**Q.** What about the Knockdown of larvae ([1]; feces collected 20 days after the rodents were treated) of the same compound?
**A.** Quick knockdown

**Q.** What about the “Days of exposure to achieve 100% mortality” value ([1]; feces day 1 post-treatment, 50 ppm) of the same compound?
**A.** 5 days

**Q.** What about the Larval mortality ([1]; feces day 1 post-treatment, 50 ppm, after 1 day of exposure) of the same compound?
**A.** 4%

**Q.** What about the “Days of exposure to achieve 100% mortality” value ([1]; feces day 1 post-treatment, 100 ppm) of the same compound?
**A.** 4 days

**Q.** What about the Larval mortality ([1]; feces day 1 post-treatment, 100 ppm, after 1 day of exposure) of the same compound?
**A.** 8%

**Q.** And the “Days of exposure to achieve 100% mortality” value ([1]; feces day 1 post-treatment, 250 ppm)?
**A.** 6 days

**Q.** What about the Larval mortality ([1]; feces day 1 post-treatment, 250 ppm, after 2 days of exposure) of the same compound?
**A.** 18%

**Q.** And the “Mortality of bloodfeeding adult P. argentipes” value ([2]; bloodfed on rodents treated as much as 20 days previously, all treatment levels)?
**A.** 100%

**Q.** And the “Time after 1 hour exposure to 100% mortality of adult P. argentipes” value ([2]; 50 ppm)?
**A.** 5 days

**Q.** And the “Time after 1 hour exposure to 100% mortality of adult P. argentipes” value ([2]; 100 ppm)?
**A.** 3 days

**Q.** What about the “Time after 1 hour exposure to 100% mortality of adult P. argentipes” value ([2]; 250 ppm) of the same compound?
**A.** 4 days

**Q.** And the “Adult sand fly mortality” value ([2]; bloodfeeding on rodents 1 day after treatment)?
**A.** 100%

**Q.** And the “Adult sand fly mortality” value ([2]; bloodfeeding on rodents 5 days after treatment)?
**A.** 100%

**Q.** What about the “Time to death of adult sand flies” value ([2]; day 1, all treatment groups (50 ppm, 100 ppm, and 250 ppm)) of the same compound?
**A.** dead by the end of the one hour exposure period

**Q.** And the “Time to 100% mortality of adult sand flies” value ([2]; day 5, 50 ppm treatment group)?
**A.** 24 h

**Q.** And the “Time to death of adult sand flies” value ([2]; day 5, 250 and 100 ppm treatment groups)?
**A.** dead by the end of the one hour exposure period
